Read-outs that look alike come from different tables or passages of the source. Values belong to the compound of their own block, whether it stands above or below them.
How the values were obtained:
Assay in all cases: MIC of β-lactams alone or with 50 µM IDACYD against clinical isolates
Type in all cases: cell-based
Proteus mirabilis = settings: Proteus mirabilis, alone
Procedure: (§1) Further the in-vitro inhibitory activity of IDACYDs was tested against highly resistant pathogens. Tables 3, 4 and 5 show the effect of IDACYDs using a collection of 36 highly resistant Gram negative strains (Table 2, Kirby-Bauer disc diffusion method) producing NDM, VIM and IMP type MBLs as well as 6 isolates expressing serine beta-lactamases (ESBLs, AmpCs). […] Clinical isolates co-expressing ESBLs and/or AmpC β-lactamases along with MBLs where re-sensitized to both imipenem and meropenem, as expected. Table 2: Collection of clinical isolates used for in-vitro evaluation

Serratia marcescens = settings: Serratia marcescens, isolate EUG-815 (VIM, CMY), alone
Procedure: as §1

Escherichia coli = settings: Escherichia coli, alone
Procedure: as §1

Providencia stuartii = settings: Providencia stuartii, alone
Procedure: as §1

Klebsiella pneumoniae = settings: for MIC: Klebsiella pneumoniae, alone; for Imipenem + α-IDACYD MIC / Meropenem + α-IDACYD MIC: IDACYD 50 μM
Procedure: Further the in-vitro inhibitory activity of IDACYDs was tested against highly resistant pathogens. […] Table 2: Collection of clinical isolates used for in-vitro evaluation

Acinetobacter baumannii = settings: Acinetobacter baumannii, alone, read-out: Imipenem MIC
Procedure: as §1

Enterobacter gergoviae = settings: Pluralibacter gergoviae, alone, read-out: Imipenem MIC
Procedure: as §1

Compound: CC(C)(O/N=C(\C(=O)N[C@@H]1C(=O)N2C(C(=O)[O-])=C(C[n+]3ccccc3)CS[C@H]12)c1csc(N)n1)C(=O)O [Ceftazidime, reference compound]
MIC (Proteus mirabilis; isolate ESDY-15184 (VIM, CMY), read-out: Ceftazidime MIC): > 256 µg/mL | MIC (Serratia marcescens; read-out: Ceftazidime MIC): > 256 µg/mL | MIC (Escherichia coli; isolate TZAN-116 (VIM), read-out: Ceftazidime MIC): > 256 µg/mL | MIC (Providencia stuartii; isolate ALX- 21 (VIM, VEB), read-out: Ceftazidime MIC): 128 µg/mL | MIC (Providencia stuartii; isolate ESDY-4559 (VIM), read-out: Ceftazidime MIC): 8 µg/mL | MIC (Klebsiella pneumoniae; isolate ALX-47 (OXA-48,CTX-M), read-out: Ceftazidime MIC): > 256 µg/mL | MIC (Klebsiella pneumoniae; isolate ESDY-5742 (IMP), read-out: Ceftazidime MIC): > 256 µg/mL | MIC (Klebsiella pneumoniae; isolate LA-28 (NDM, CTXM), read-out: Ceftazidime MIC): > 256 µg/mL | MIC (Klebsiella pneumoniae; isolate LA-82/16 (VIM, SHV), read-out: Ceftazidime MIC): > 256 µg/mL | MIC (Klebsiella pneumoniae; isolate LA-109/16 (VIM, CTXM), read-out: Ceftazidime MIC): > 256 µg/mL | MIC (Klebsiella pneumoniae; isolate LAR-4011/15, read-out: Ceftazidime MIC): 32 µg/mL | MIC (Klebsiella pneumoniae; isolate UoA 12/227 (VIM), read-out: Ceftazidime MIC): > 256 µg/mL | MIC (Klebsiella pneumoniae; isolate UoA 1995 (VIM), read-out: Ceftazidime MIC): > 256 µg/mL

MIC (Acinetobacter baumannii; isolate TZAN-40 (VIM, OXA-58)): 4 µg/mL | MIC (Acinetobacter baumannii; isolate TZAN-42 (VIM, OXA-58)): 8 µg/mL | MIC (Proteus mirabilis; Table 5, Pr m ESDY 15315 (VIM-1, CMY), read-out: Imipenem MIC): 16 µg/mL | MIC (Proteus mirabilis; isolate ALX-13 (VIM, VEB), read-out: Imipenem MIC): 8 µg/mL | MIC (Proteus mirabilis; isolate ESDY-17 (VIM, CMY), read-out: Imipenem MIC): 4 µg/mL | MIC (Proteus mirabilis; isolate ESDY-15184 (VIM, CMY), read-out: Imipenem MIC): 8 µg/mL | MIC (Proteus mirabilis; isolate ESDY-15315 (VIM, CMY), read-out: Imipenem MIC): 16 µg/mL | MIC (Serratia marcescens; read-out: Imipenem MIC): 16 µg/mL | MIC (Enterobacter gergoviae; isolate AK-5227 (VIM, CMY)): 8 µg/mL | MIC (Enterobacter gergoviae; isolate AK-5240 (VIM, CMY)): 8 µg/mL | MIC (Escherichia coli; isolate TZAN-116 (VIM), read-out: Imipenem MIC): 4 µg/mL | MIC (Escherichia coli; isolate TZAN-541 (VIM), read-out: Imipenem MIC): 4 µg/mL | MIC (Providencia stuartii; isolate ALX- 21 (VIM, VEB), read-out: Imipenem MIC): 8 µg/mL | MIC (Providencia stuartii; isolate ALX-27 (VIM), read-out: Imipenem MIC): 16 µg/mL | MIC (Providencia stuartii; isolate ESDY-4559 (VIM), read-out: Imipenem MIC): 4 µg/mL | MIC (Providencia stuartii; isolate ESDY-4563 (VIM, VEB), read-out: Imipenem MIC): 4 µg/mL | MIC (Klebsiella pneumoniae; Table 5, Kpn ESDY 5742 (IMP-1), read-out: Imipenem MIC): 8 µg/mL | MIC (Klebsiella pneumoniae; Table 5, Kpn LA 26 (NDM-1), read-out: Imipenem MIC): 16 µg/mL | MIC (Klebsiella pneumoniae; Table 5, Kpn LA 34 (VIM-1 CMY), read-out: Imipenem MIC): 16 µg/mL | MIC (Klebsiella pneumoniae; Table 5, Kpn LA 82/16 (VIM-1), read-out: Imipenem MIC): 64 µg/mL | MIC (Klebsiella pneumoniae; Table 5, Kpn LA 109/16 (VIM-1), read-out: Imipenem MIC): 16 µg/mL | MIC (Klebsiella pneumoniae; Table 5, Kpn LA419/16 (NDM-1), read-out: Imipenem MIC): 8 µg/mL | MIC (Klebsiella pneumoniae; Table 5, Kpn LAR 37II/15 (NDM-1, VIM-1, CTXM), read-out: Imipenem MIC): 64 µg/mL | MIC (Klebsiella pneumoniae; isolate 6/100 (VIM), read-out: Imipenem MIC): 32 µg/mL | MIC (Klebsiella pneumoniae; isolate 2489 (NDM), read-out: Imipenem MIC): 32 µg/mL | MIC (Klebsiella pneumoniae; isolate 2685 (VIM, CMY, CTXM), read-out: Imipenem MIC): 32 µg/mL | MIC (Klebsiella pneumoniae; isolate ALX-47 (OXA-48,CTX-M), read-out: Imipenem MIC): 4 µg/mL | MIC (Klebsiella pneumoniae; isolate ESDY-1780 (VIM, KPC), read-out: Imipenem MIC): 16 µg/mL | MIC (Klebsiella pneumoniae; isolate ESDY-2681 (VIM-27), read-out: Imipenem MIC): 16 µg/mL | MIC (Klebsiella pneumoniae; isolate ESDY-5742 (IMP), read-out: Imipenem MIC): 8 µg/mL | MIC (Klebsiella pneumoniae; isolate EY-20S (CMY, SHV), read-out: Imipenem MIC): 2 µg/mL | MIC (Klebsiella pneumoniae; isolate IT-17829 (CTXM, SHV), read-out: Imipenem MIC): 1 µg/mL | MIC (Klebsiella pneumoniae; isolate L078/11 (KPC), read-out: Imipenem MIC): 32 µg/mL | MIC (Klebsiella pneumoniae; isolate LA-26 (NDM), read-out: Imipenem MIC): 16 µg/mL | MIC (Klebsiella pneumoniae; isolate LA-27 (NDM, CTXM), read-out: Imipenem MIC): 8 µg/mL | MIC (Klebsiella pneumoniae; isolate LA-28 (NDM, CTXM), read-out: Imipenem MIC): 8 µg/mL | MIC (Klebsiella pneumoniae; isolate LA-34 (VIM, CMY), first entry of Table 3, read-out: Imipenem MIC): 32 µg/mL | MIC (Klebsiella pneumoniae; isolate LA-34 (VIM, CMY), second entry of Table 3, read-out: Imipenem MIC): 32 µg/mL | MIC (Klebsiella pneumoniae; isolate LA-38 (NDM), read-out: Imipenem MIC): 8 µg/mL | MIC (Klebsiella pneumoniae; isolate LA-82/16 (VIM, SHV), read-out: Imipenem MIC): 8 µg/mL | MIC (Klebsiella pneumoniae; isolate LA-109/16 (VIM, CTXM), read-out: Imipenem MIC): 16 µg/mL | MIC (Klebsiella pneumoniae; isolate LA-419/16 (NDM,CTXM), read-out: Imipenem MIC): 4 µg/mL | MIC (Klebsiella pneumoniae; isolate LA-470/17 (NDM), read-out: Imipenem MIC): 8 µg/mL | MIC (Klebsiella pneumoniae; isolate LAR-26I/15 (NDM, VIM, CTXM), read-out: Imipenem MIC): 16 µg/mL | MIC (Klebsiella pneumoniae; isolate LAR-37II/15 (NDM, VIM, CTXM), read-out: Imipenem MIC): 64 µg/mL | MIC (Klebsiella pneumoniae; isolate LAR-38I/15 (VIM, NDM, CTXM), read-out: Imipenem MIC): 4 µg/mL | MIC (Klebsiella pneumoniae; isolate LAR-40II/15 (KPC), read-out: Imipenem MIC): 16 µg/mL | MIC (Klebsiella pneumoniae; isolate LAR-2873 (VIM-12), read-out: Imipenem MIC): 4 µg/mL | MIC (Klebsiella pneumoniae; isolate LAR-7547 (NDM, VIM, CTXM), read-out: Imipenem MIC): 64 µg/mL | MIC (Klebsiella pneumoniae; isolate SEC-2 (VIM), read-out: Imipenem MIC): 32 µg/mL | MIC (Klebsiella pneumoniae; isolate SEC-4 (VIM), read-out: Imipenem MIC): 64 µg/mL | MIC (Klebsiella pneumoniae; isolate TZAN-59 (β-lactamase: None), read-out: Imipenem MIC): 1 µg/mL | MIC (Klebsiella pneumoniae; isolate UoA 12/227 (VIM), read-out: Imipenem MIC): 8 µg/mL | MIC (Klebsiella pneumoniae; isolate UoA 1995 (VIM), read-out: Imipenem MIC): 8 µg/mL
Compound: C[C@@H](O)[C@H]1C(=O)N2C(C(=O)O)=C(SCCN=CN)C[C@H]12 [Imipenem, reference compound]

Imipenem + α-IDACYD MIC (Klebsiella pneumoniae; Kpn ESDY 5742 (IMP-1)): <0.25 µg/mL | Meropenem + α-IDACYD MIC (Klebsiella pneumoniae; Kpn ESDY 5742 (IMP-1)): <0.25 µg/mL | Imipenem + α-IDACYD MIC (Klebsiella pneumoniae; Kpn LA 34 (VIM-1 CMY)): <0.5 µg/mL | Meropenem + α-IDACYD MIC (Klebsiella pneumoniae; Kpn LA 34 (VIM-1 CMY)): <0.5 µg/mL | Imipenem + α-IDACYD MIC (Klebsiella pneumoniae; Kpn LA 82/16 (VIM-1)): <0.25 µg/mL | Meropenem + α-IDACYD MIC (Klebsiella pneumoniae; Kpn LA 82/16 (VIM-1)): <0.25 µg/mL | Imipenem + α-IDACYD MIC (Klebsiella pneumoniae; Kpn LA 109/16 (VIM-1)): <0.25 µg/mL | Meropenem + α-IDACYD MIC (Klebsiella pneumoniae; Kpn LA 109/16 (VIM-1)): <0.25 µg/mL | Imipenem + α-IDACYD MIC (Klebsiella pneumoniae; Kpn LA419/16 (NDM-1)): <0.25 µg/mL | Meropenem + α-IDACYD MIC (Klebsiella pneumoniae; Kpn LA419/16 (NDM-1)): <0.25 µg/mL
Compound: CO[C@@H]1[C@@H](OC)[C@H]2O[C@H]3[C@H](OC)[C@@H](OC)[C@@H](O[C@H]4[C@H](OC)[C@@H](OC)[C@@H](O[C@H]5[C@H](OC)[C@@H](OC)[C@@H](O[C@H]6[C@H](OC)[C@@H](OC)[C@@H](O[C@H]7[C@H](OC)[C@@H](OC)[C@@H](O[C@@H]1[C@@H](CN(CC(=O)O)CC(=O)O)O2)O[C@@H]7CN(CC(=O)O)CC(=O)O)O[C@@H]6CN(CC(=O)O)CC(=O)O)O[C@@H]5CN(CC(=O)O)CC(=O)O)O[C@@H]4CN(CC(=O)O)CC(=O)O)O[C@@H]3CN(CC(=O)O)CC(=O)O [α-IDACYD]
